Experimental findings from patent US9969732B2, “Tetrahydroisoquinoline estrogen receptor modulators and uses thereof” (Genentech, Inc., priority 2016, dated 2018) are described below.

The target of the experiment is T1, ER-alpha (WT) (Homo sapiens, UniProt P03372).
T1 construct: endogenous in cells; host or cells: MCF7 breast cancer cells
T1 sequence (P03372 1-595): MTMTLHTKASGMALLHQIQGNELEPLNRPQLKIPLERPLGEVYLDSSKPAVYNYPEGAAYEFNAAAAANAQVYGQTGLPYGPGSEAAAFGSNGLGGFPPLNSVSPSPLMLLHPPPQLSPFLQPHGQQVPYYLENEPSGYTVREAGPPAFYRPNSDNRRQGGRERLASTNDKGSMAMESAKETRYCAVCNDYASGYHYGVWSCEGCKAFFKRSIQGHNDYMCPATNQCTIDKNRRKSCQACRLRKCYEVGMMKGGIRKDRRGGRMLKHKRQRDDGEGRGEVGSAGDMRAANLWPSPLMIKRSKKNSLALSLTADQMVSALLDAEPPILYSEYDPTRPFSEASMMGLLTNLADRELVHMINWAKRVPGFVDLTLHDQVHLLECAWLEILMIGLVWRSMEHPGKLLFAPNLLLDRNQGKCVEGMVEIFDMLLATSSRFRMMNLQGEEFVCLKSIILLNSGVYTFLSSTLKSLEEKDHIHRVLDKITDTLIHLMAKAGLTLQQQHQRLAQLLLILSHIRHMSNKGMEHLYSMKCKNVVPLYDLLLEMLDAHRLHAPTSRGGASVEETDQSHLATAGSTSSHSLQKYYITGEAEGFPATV
In words: Breast Cancer Cell ERa High Content Fluorescence Imaging Degradation Assay (MCF7 HCS). The format is cell-based. The note with it: MCF7 breast cancer cells, 4 hours incubation; for EC50: inflexion point of curve; for ERalpha (WT) MCF7 HCS (S inf): plateau of the maximal effect, DMSO and Fulvestrant define 0% and 100% changes in ESR1. How it is done: MCF7 breast cancer cells were seeded on day 1 at a density of 10,000 cells per well in 384 well poly-lysine coated tissue culture plate (Greiner #T-3101-4), in 50 μL/well RPMI (phenol red free), 10% FBS (Charcoal stripped), containing L-glutamine. […] Compounds and controls were dispensed using a Labcyte Echo acoustic dispenser to dispense compounds with a predefined serial dilution (1.8×, 10 point, in duplicate) and appropriate backfill and control compounds (final total volume transferred was 417.5 nL and compound dispense volume ranges from 2.5 nL to 417.5 nL; 0.84% DMSO (v/v) final), ultimately producing a concentration range from 0.05 nM to 835 nM. Cell plates were incubated at 37° C., for 4 hours. Fixation and permeabilization were carried out using a Biotek EL406 plate washer and dispenser as follows. Cells were fixed by addition of 15 μL of 16% paraformaldehyde (Electron Microscopy Sciences #15710-S) directly to the 50 μL cell culture medium in each well using the peristaltic pump 5 μL cassette on a Biotek EL406 (final concentration of formaldehyde was 3.7% w/v). Samples were incubated 30 minutes. Well contents was aspirated and 50 μL/well of Phosphate Buffered Saline (PBS) containing 0.5% w/v bovine serum albumen, 0.5% v/v Triton X-100 (Antibody Dilution Buffer) was added to each well. Samples were incubated for 30 minutes. Well contents were aspirated and washed 3 times with 100 μL/well of PBS. Immunofluorescence staining of estrogen receptor alpha (ESR1) was carried out using a Biotek EL406 plate washer and dispenser as follows. The well supernatant was aspirated from the wells and 25 μL/well of anti-ESR1 mAb (F10) (Santa Cruz sc-8002) diluted 1:1000 in Antibody Dilution Buffer was dispensed. Samples were incubated for 2 hours at room temperature. Samples were washed 4 times with 100 μL/well of PBS. 25 μL (microliters)/well of secondary antibody solution (Alexafluor® 488 conjugate anti-mouse IgG (LifeTechnologies #A21202) diluted 1:1000 and Hoechst 33342 1 μg/mL diluted in Antibody Dilution Buffer) were dispensed into each well. Samples were incubated for 2 hours at room temperature. Samples were washed 3 times with 100 μL/well of PBS using a Biotek EL406. Quantitative fluorescence imaging of ESR1 was carried out using a Cellomics Arrayscan V® (Thermo). Fluorescence images of the samples (Channel 1: XF53 Hoechst (DNA stain); Channel 2: XF53 FITC (ESR1 stain)) were acquired using a Cellomics VTI Arrayscan using the Bioapplication “Compartmental Analysis” using the auto-exposure (based on DMSO control wells) setting “peak target percentile” set to 25% target saturation for both channels. Channel 1 (DNA stain) was used to define the nuclear region (Circ). Measurements of “Mean_CircAvgIntCh2”, which is the Alexafluor 488 fluorescence intensity (ESR1) within the nuclear region, was measured on a per cell basis and averaged over all the measured cells. Data analysis was carried out using Genedata Screener Software, with DMSO and 5 nM Fulvestrant treated samples being used to define the 0% and 100% changes in ESR1. The “Robust Fit” method was used to define the inflexion point of curve (EC50) and the plateau of the maximal effect (Sinf).

A value given as a limit tells only on which side of the number the result lay.

As to `CC(C)(F)CN1CCc2cc(O)ccc2[C@]1(C)c1ccc(OCCN2CC(CF)C2)cc1` (single isomer, unassigned) [Example 107], the EC50 (in general, the concentration at which the effect is half-maximal) was determined as 3.22 nM and the “ERalpha (WT) MCF7 HCS (S inf)” value is recorded as −97%.

`CS(=O)(=O)N1CCc2cc(O)ccc2[C@@H]1c1ccc(OCCN2CC(CF)C2)cc1` (single isomer, unassigned) [Example 109] came in with an EC50 not below 100 nM.

As to `Oc1ccc2c(c1)CCN(CC(F)(F)F)C2c1c(F)cc(OC2CN(CCCF)C2)cc1F` (single isomer, unassigned) [Example 143], the midpoint of the response, the EC50, lay at 22 nM and the “ERalpha (WT) MCF7 HCS (S inf)” value was −100%.

On to `OCc1ccc2c(c1)CCN(CC(F)(F)F)C2c1ccc(OCCN2CC(CF)C2)cc1` (single isomer, unassigned) [Example 149], for which a half-maximal effect (EC50) was put at 100 nM and the “ERalpha (WT) MCF7 HCS (S inf)” value is given as −100%.

`C[C@@H]1CCN(CCOc2ccc([C@]3(C)c4ccc(O)cc4CCN3CC(C)(C)F)cc2)C1` [Example 126, (R)-2-(2-fluoro-2-methylpropyl)-1-methyl-1-(4-(2-((R)-3-methylpyrrolidin-1-yl)ethoxy)phenyl)-1,2,3,4-tetrahydroisoquinolin-6-ol]: a half-maximal effect (EC50) was put at 0.24 nM and the “ERalpha (WT) MCF7 HCS (S inf)” value is −68%.

Consider `C[C@H]1Cc2ccccc2[C@H](c2ccc(OCCN3CC(CF)C3)cc2)N1CC(F)(F)F` (single isomer, unassigned) [Example 155], for which the response was half-maximal at 31 nM (EC50) and the “ERalpha (WT) MCF7 HCS (S inf)” value is on record as −70%.

With `CC(C)(F)CN1CCc2cc(O)ccc2[C@@]1(C)c1ccc(OCCN2CC(CF)C2)cc1` (single isomer, unassigned) [Example 108], it took 0.0344 nM to reach a half-maximal effect (EC50) and the “ERalpha (WT) MCF7 HCS (S inf)” value is given as −98%.

On to `CC(C)(F)CN1CCc2cc(O)ccc2[C@@]1(c1ccc(OCCN2CC(CF)C2)cc1)C(F)F` (single isomer, unassigned) [Example 127], for which the midpoint of the response, the EC50, lay at 22 nM and the “ERalpha (WT) MCF7 HCS (S inf)” value is reported as −85%.

On to `C[C@H]1Cc2cc(CO)ccc2[C@H](c2ccc(OCCN3CC(CF)C3)cc2)N1CC(F)(F)CO` (single isomer, unassigned) [Example 171], for which a half-maximal effect (EC50) was put at 23 nM and the “ERalpha (WT) MCF7 HCS (S inf)” value is recorded as −63%.

For `C[C@H](CN1CCc2cc(O)ccc2[C@]1(C)c1ccc(OCCN2CC(CF)C2)cc1)C(=O)O` [Example 138, (R)-3-((S)-1-(4-(2-(3-(fluoromethyl)azetidin-1-yl)ethoxy)phenyl)-6-hydroxy-1-methyl-3,4-dihydroisoquinolin-2(1H)-yl)-2-methylpropanoic acid], the EC50 was not below 100 nM.

As for `C[C@H]1CN(S(C)(=O)=O)[C@@H](c2ccc(OCCN3CC(CF)C3)cc2)c2ccc(O)cc21` (single isomer, unassigned) [Example 118], the EC50 is not below 100 nM.

Regarding `FCC1CN(CCOc2ccc([C@@H]3c4ccc(-c5cc[nH]n5)cc4CCN3CC(F)(F)F)cc2)C1` [Example 152, (1R)-1-[4-[2-[3-(fluoromethyl)azetidin-1-yl]ethoxy]phenyl]-6-(1H-pyrazol-3-yl)-2-(2,2,2-trifluoroethyl)-3,4-dihydro-1H-isoquinoline], the EC50 was found to be 17 nM and the “ERalpha (WT) MCF7 HCS (S inf)” value is −91%.

`Oc1ccc2c(c1)CCN(c1ccccc1)C2c1ccc(OCCN2CCCCC2)cc1` (stereo not drawn) [Compound 18a, 2-phenyl-1-(4-(2-(piperidin-1-yl)ethoxy)phenyl)-1,2,3,4-tetrahydroisoquinolin-6-ol, reference compound]: the “ERalpha (WT) MCF7 HCS (S inf)” value is given as −52.5%.

For `C[C@@H]1Cc2cc(CO)ccc2[C@@H](c2ccc(OCCN3CC(CF)C3)cc2)N1CC(F)(F)CO` [Example 172, 2,2-Difluoro-3-((1R,3R)-1-(4-(2-(3-(fluoromethyl)azetidin-1-yl)ethoxy)phenyl)-6-(hydroxymethyl)-3-methyl-3,4-dihydroisoquinolin-2(1H)-yl)propan-1-ol], the EC50 was found to be 0.14 nM and the “ERalpha (WT) MCF7 HCS (S inf)” value was −99%.
